Experimental data: PMC6080781, “ATP competes with PIP2 for binding to gelsolin” (PLoS ONE, 2018)

Experiments:
gelsolin [1] = biological target: T1, gelsolin (Homo sapiens, UniProt P06396); assay: Steady-state fluorescence anisotropy of PIP2-F binding to gelsolin; settings: 5 μM gelsolin
T1 construct: His tag (cleaved yes); made in house; host or cells: E. coli Rosetta2 (DE3) pLysS, pSY5 plasmid
Method: His-tagged human wild-type gelsolin was expressed in E. coli strain Rosetta2 (DE3) pLysS cells from a pSY5 plasmid. […] Traces of calcium were removed by dialysis (2 mM Tris-HCl, 1 mM EGTA, pH 7.4, overnight). Rabbit skeletal muscle actin was prepared from acetone powder (Pel-Freez Biologicals) in a protocol modified from Spudich and Watt. Actin was stored in buffer A (2 mM Tris-HCl, 0.2 mM ATP (ATP disodium trihydrate, Sigma-Aldrich), 0.1 mM CaCl2 (pCa 4), 0.1 mM DTT and 0.005% NaN3, pH 7.4). Alexa Fluor^TM 488 C5 Maleimide (Life Technologies) was used to label cysteine residues of gelsolin based on the manufacturer’s recommendations (Thermo Fisher Scientific).
We used a fluorescent derivative of PIP2 (PtdIns-(4,5)-P2-fluorescein, Cayman Chemicals, NU-10010388, λex = 493 nm, λem = 520 nm, abbreviated as PIP2-F) and a fluorescent derivative of ATP (N^6-(6-amino)hexyl-ATP-ATTO-532, Jena Bioscience, NU-805-532, λex = 532 nm, λem = 553 nm, abbreviated as ATP-N) as probes for the binding of PIP2 and ATP to gelsolin. Fluorescence intensities were measured on a Safire^2 monochromator microplate reader (TECAN) at 22°C. Steady-state fluorescence anisotropy values were determined according to Eq 1 [65], where IVV and IVH, respectively, are the intensities of vertically and horizontally polarized emission on excitation with vertically polarized light, with the correction factor, G, being the ratio of IVH/IVV.
The dissociation constants for ATP and PIP2 were calculated using a hyperbolic model from anisotropy data that had reached saturation during the gelsolin titrations Eq 2: r=rf+(rb−rf)(Kd+[G]+[L]−(Kd+[G]+[L])^2−4[G][L]/2[L]) (2) where rf is the anisotropy of free ligand, rb is the anisotropy of gelsolin-bound ligand, [L] is the total concentration of ligand, Kd is the dissociation constant and [G] is the total concentration of gelsolin. The anisotropy of 0.5 μM ATP-N was measured in the presence of gelsolin concentrations: 0, 0.2, 1.5, 2, 3, 5 and 8 μM. […] The calcium and magnesium sensitivities of ATP binding to gelsolin were characterized by the change in anisotropy of solutions containing 0.5 μM ATP-N in the presence of 5 μM of gelsolin over a range of divalent cation concentrations of pCa 2–12 or pMg 1–12, where pCa and pMg refer to[…]. […] Anisotropy of 0.5 μM or 0.25 μM solutions of PIP2-F in the presence of 5 μM gelsolin was used to probe the changes in binding of the complexes under different calcium, magnesium, salt and ATP conditions.

calcium-free gelsolin = biological target: calcium-free gelsolin; parameters: method as in PMID 10336615; settings: cited from earlier work
gelsolin [2] = biological target: T1, gelsolin; assay: Confocal microscopy of Alexa488-labeled gelsolin on PIP2-containing phospholipid vesicles; settings: 0.5 mM ATP, absence of divalent cations
Method: Phospholipid vesicles were prepared by a modified protocol from James H. Morrissey, Dept. of Biochemistry, University of Illinois at Urbana-Champaign, Urbana, IL 61801, USA (https://tf7.org). A mixture of 1% PIP2 (PtdIns-(4,5)-P2(1,2-dipalmitoyl)) (Cayman Chemicals), 79% PC (L-α-phosphatidylcholine) (Sigma-Aldrich) and 20% PS (3-sn-phosphatidyl-L-serine) (Sigma-Aldrich) was dissolved in 20 μM rhodamine 590 N-succinimidyl ester (Sigma-Aldrich) in chloroform. […]
10% (v/v) rhodamine590-filled phospholipid vesicles and 5 μM Alexa488-labeled gelsolin were incubated together and a drop of the mixture was placed on a clean glass slide, which was then covered by and separated from a second slide by a parafilm gasket. […] Fluorescence emission-based imaging was carried out using a Zeiss LSM 510 META Confocal Microscope. The two different fluorophores were detected in two separate channels; Alexa488 (gelsolin) was excited by 477 nm laser light and emission was detected in the 505–530 nm channel, while rhodamine590 (phospholipid vesicles) was excited by 545 nm laser light and emission was detected in the 585–630 nm channel.

gelsolin [3] = settings: equilibrium dialysis, high NaCl concentrations; read-out: dissociation constant for gelsolin; cited from earlier work
gelsolin [4] = biological target: T1, gelsolin; assay: Labeled/unlabeled ATP competition on gelsolin (ATP-N anisotropy); type: binding; settings: absence of calcium
Method: The dissociation constants for ATP and PIP2 were calculated using a hyperbolic model from anisotropy data that had reached saturation during the gelsolin titrations Eq 2: r=rf+(rb−rf)(Kd+[G]+[L]−(Kd+[G]+[L])^2−4[G][L]/2[L]) (2) where rf is the anisotropy of free ligand, rb is the anisotropy of gelsolin-bound ligand, [L] is the total concentration of ligand, Kd is the dissociation constant and [G] is the total concentration of gelsolin. The anisotropy of 0.5 μM ATP-N was measured in the presence of gelsolin concentrations: 0, 0.2, 1.5, 2, 3, 5 and 8 μM. Saturation was evident at 5 μM characterized by an anisotropy value of 0.15 ± 0.006. […]
Supplementary file pone.0201826.s002.pdf: S2 Fig ATP binding to gelsolin under actin polymerization conditions. (A) The calcium-dependent gelsolin binding affinity for ATP under actin polymerization conditions was determined by monitoring the change in ATP-N anisotropy on gelsolin titration at different calcium ion concentrations. Each data point arises from the Kd calculated from a titration similar to Fig 1A. […] (B) The anisotropy of ATP-N (0.5 μM) bound to gelsolin (5 μM) was measured upon titrating with unlabeled ATP in the absence of calcium. […]

[5] = Critical micelle concentration by dynamic light scattering; type: physicochemical
Method: tested, PIP2-F was free from micelle formation at concentrations of 0.5 µM or below, whereas […]
Methods: The critical micelle concentrations of PIP2 and 1-(1-octadecanoyl-fluorescein-2R-octadecanoylphosphatidyl)inositol-4,5-bisphosphate (Cayman Chemical, abbreviated as PIP2-F) were determined by dynamic light scattering (Huang et al., 2011). Fifty microliter samples were prepared by serial dilution of PIP2 or PIP2-F into a low salt buffer (2 mM Tris-HCl, pH 7.4), or the same buffer supplemented with 100 mM KCl, 1 mM MgCl2, and/or 1 mM CaCl2. After incubation for 30 min, the samples were centrifuged at 15,000 x g for 10 min, transferred into a 384-well clear bottom plate, and light scattering was measured using a Wyatt Dynapro plate reader at room temperature. The concentrations of PIP2-F were subsequently determined by light absorbance at 494 nm with a Nanodrop spectrophotometer. […]
Huang, W., Jiang, D., Wang, X., Wang, K., Sims, C. E., Allbritton, N. L. and Zhang, Q.

[6] = Calcium-dependent fluorescence emission of FURA-2FF; type: binding; settings: inferred from unchanged FURA-2FF profile with 20 μM PIP2
Method: Supplementary file pone.0201826.s005.pdf: S5 Fig Assessment of the effects of calcium and ATP on the binding of ATP-N and PIP2-F to gelsolin. (A) Kds were calculated from the fit data with Eq 2 of gelsolin:PIP2-F binding under different calcium concentrations in the absence or presence of ATP. In the absence of ATP, PIP2-F (0.5 μM) binds to gelsolin, as reflected by thehigh affinity, across a wide range of calcium concentrations. […] (B) In the absence of gelsolin, calcium directly precipitates ATP-N (C, open triangles) with a half-maximum value of 70.4 ± 0.7 μM. Magnesium has no effect on the fluorescence emission of ATP-N either in the absence (M, orange circles) or presence of 10 μM calcium (MC, purple squares). Data were fitted with simple sigmoidal curves. (C) The reported FURA-2FF dissociation constant for calcium ions is 25 μM (A.G. Scientific Inc.). The calcium-dependent fluorescence emission profile of FURA-2FF (2 μM) over pCa range of 5–7 was similar in the presence and absence of 20 μM PIP2, which were fitted with simple sigmoidal curves. […] The measurement was carried out with a Perkin Elmer LS-55 spectrofluorimeter (λex = 340 nm, λem = 505 nm). (PDF) Click here for additional data file.

T1 sequence (P06396 28-782): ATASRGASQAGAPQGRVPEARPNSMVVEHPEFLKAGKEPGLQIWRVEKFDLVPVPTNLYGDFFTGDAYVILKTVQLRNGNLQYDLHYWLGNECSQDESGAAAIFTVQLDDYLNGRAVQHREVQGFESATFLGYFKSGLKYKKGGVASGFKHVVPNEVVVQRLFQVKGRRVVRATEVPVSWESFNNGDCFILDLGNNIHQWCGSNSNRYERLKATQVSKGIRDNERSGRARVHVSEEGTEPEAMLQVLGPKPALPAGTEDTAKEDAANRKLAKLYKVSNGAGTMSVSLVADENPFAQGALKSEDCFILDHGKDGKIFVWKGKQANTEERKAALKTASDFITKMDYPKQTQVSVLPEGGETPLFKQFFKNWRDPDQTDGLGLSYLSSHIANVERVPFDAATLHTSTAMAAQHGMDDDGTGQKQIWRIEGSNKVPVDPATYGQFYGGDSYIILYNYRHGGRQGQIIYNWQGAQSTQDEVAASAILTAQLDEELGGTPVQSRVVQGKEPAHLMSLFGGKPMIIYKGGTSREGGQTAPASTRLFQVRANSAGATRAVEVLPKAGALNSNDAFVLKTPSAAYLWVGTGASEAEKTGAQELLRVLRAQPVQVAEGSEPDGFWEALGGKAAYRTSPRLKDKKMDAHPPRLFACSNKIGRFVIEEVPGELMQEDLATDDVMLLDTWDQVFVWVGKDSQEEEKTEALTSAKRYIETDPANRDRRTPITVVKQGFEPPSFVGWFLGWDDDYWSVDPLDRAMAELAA

Row | Compound | effect of ATP on PIP2-F anisotropy (gelsolin [1]; 0.5 mM ATP, 0.25 μM PIP2-F, 100 mM K+, 1 mM Mg2+, entire calcium range, absence and presence of 50 μM actin) | effect of ATP on the gelsolin/PIP2-F complex (gelsolin [1]; 0.2 or 0.5 mM ATP, 0.5 μM PIP2-F) | Kd (calcium-free gelsolin; Gremm and Wegner, read-out: Kd of calcium-free gelsolin for ATP) [µM] | ATP binding to gelsolin (calcium-free gelsolin; solutions with more than 10 μM Ca2+ (pCa 5)) | release of gelsolin-Alexa488 from PIP2-containing vesicles (gelsolin [2]) | Kd (gelsolin [3]) [µM] | ATP concentration sufficient to remove the gelsolin bound ATP-N (gelsolin [4]; 0.5 μM ATP-N, 5 μM gelsolin) [µM] | Kd (gelsolin [4]; 50 mM KCl, 1 mM MgCl2 (actin polymerizing salt), competition with ATP-N) [µM] | CMC of PIP2 ([5]; 100 mM KCl and 1 mM MgCl2, nominal concentrations) [µM] | CMC of PIP2 ([5]; 100 mM KCl, nominal concentrations) [µM] | CMC of PIP2 ([5]; absence of cations, nominal concentrations) [µM] | CMC of PIP2 ([5]; calcium in the buffer, considered an overestimation) | Kd [6] [µM]
1 | Nc1ncnc2c1ncn2[C@@H]1O[C@H](COP(=O)(O)OP(=O)(O)OP(=O)([O-])[O-])[C@@H](O)[C@H]1O.O.O.O.[Na+].[Na+] [ATP, ATP disodium trihydrate] | almost complete loss of PIP2-F anisotropy | complete dissociation of the gelsolin/PIP2-F complex | 32 | No ATP binding to gelsolin is detectable | the majority of gelsolin-Alexa488 was released from the vesicles | 0.28 | 50 | 2.2 |  |  |  |  | 
2 | phosphatidylinositol 4,5-bisphosphate [PIP2] |  |  |  |  |  |  |  |  | < 1 | 2 | 20 | ~ 10 μM | ≥ 25
